Among the data in ChEMBL document CHEMBL3507680, “University of Dundee, Gates Library screen for HepG2 cell viability” are cytotoxicity values, retold here.

Molecules are shown by their SMILES.

The data set in a line: Human HepG2 cell viability assay in 384 well format. More on the design: dose 125 nL, time 70.5 hour; concentration not given beside the values. The settings on record: HepG2 cells, read-out: Inhibition. Type of data set: toxicity, cell-based.
In the case of `CCc1cc(C(=O)N2CC[C@@H](c3ccc4ccccc4c3)[C@H](O)C2)[nH]n1`, the cytotoxicity at 70.5 h stood at 35%.
For the molecule `CCc1cnc(C)nc1NC(CC)c1ncnn1CC` (stereo not drawn), the cytotoxicity at 70.5 h was -5.6%.
The result for `COc1ccc(C(=O)N2CCCCC2c2ccccn2)c(OC)n1` (stereo not drawn) reads 15.4%; that for `O=C(NCCc1cccnc1)c1cn(CCN2CCNCC2)nn1`, -5.26%.
The result for `CCc1cnc(C)nc1NCCN1CCC(O)CC1` reads 9.55%.
The result for `CCC(C(=O)NC(C)(C)C)n1cccc(OC)c1=O` (stereo not drawn) reads -10.3%.
Consider `CCn1cnc(NC(=O)N2CCC(c3ccc(F)cc3)C2)n1` (stereo not drawn), for which the cytotoxicity at 70.5 h was -8.46%.
The result for `CCn1cc(CNc2ccc3nccnc3c2)cn1` reads 7.17%.
Consider `Cn1ccnc1SCCNC1CCN(c2ncccn2)CC1`, for which the cytotoxicity at 70.5 h is -1.29%.
Consider `CCCOCC1CCN(C(=O)Cn2cccc(OC)c2=O)C1` (stereo not drawn), for which the cytotoxicity at 70.5 h was -9.9%.
Turning to `COc1ccc(F)c(CN2CC(=O)N(c3ccccc3C)CC2C)c1` (stereo not drawn), the cytotoxicity at 70.5 h was -7.03%.
Take `Cc1oc(-c2ccc(F)cc2F)nc1CN1C[C@@H](C)O[C@@H](C)C1`: the cytotoxicity at 70.5 h was 15.1%.
The result for `Cc1nn(C2CCCCC2)c2nc(C(C)(C)CN3CCOCC3)[nH]c12` reads -6.99%; that for `CSCCC(O)C(=O)N(C)Cc1cnn(-c2ccc(F)cc2)c1` (stereo not drawn), -3.28%; that for `CCN1CCC(CC(=O)N2CCN(c3ccccc3OC)CC2C)CC1` (stereo not drawn), 23.7%.
Consider `Cc1c(Cn2c(=O)cnc3ccccc32)cnn1C`, for which the cytotoxicity at 70.5 h is -14.9%.
The result for `Cc1cnc(Cn2cc(-c3cccc(C(C)N(C)C)c3)nn2)cn1` (stereo not drawn) reads -4.71%; that for `COc1cccc(OCC2CCCN(C(=O)Cc3cccc(O)c3)C2)c1` (stereo not drawn), -11.3%.
The result for `O=C(NCCC1COc2ccccc2O1)c1ccc(N2CC(O)C2)nc1` (stereo not drawn) reads -6.19%; that for `O=C(c1cnc2ccccn12)N1CCCC(c2ccn[nH]2)C1` (stereo not drawn), -11.2%; that for `CC(c1ccccn1)N(C)Cc1cccc(C(=O)Nc2nccn2C)c1` (stereo not drawn), 8.36%.
The result for `CN(Cc1ncc[nH]1)c1nc(-c2ccccn2)nc2c1CCNCC2` reads -11.9%; that for `Cc1ccsc1[C@@H]1CCN(C(=O)CCOc2ccccc2)C[C@H]1O`, -8.93%.
For the molecule `NCCn1cc(C(=O)N2CCCCCC2c2cccc(F)c2)nn1` (stereo not drawn), the cytotoxicity at 70.5 h came to 13.5%.
Consider `CCn1c(C)nnc1SCCNc1cc(OC)ncn1`, for which the cytotoxicity at 70.5 h is -18.6%.
In the case of `Cc1cccnc1CN1CCN(C(=O)c2cc(Cl)c[nH]c2=O)CC1`, the cytotoxicity at 70.5 h worked out at 8.42%.
The result for `Cc1ccc(F)c(OC2(C(=O)O)CCN(C(=O)c3ccccc3)CC2)c1` reads -6.1%; that for `Cc1ccc(-c2cc(C(=O)N(C)Cc3noc4c3CCCC4)[nH]n2)s1`, 21.6%; that for `COc1cc(-c2cccc3c2OC(CN)C3)cc(OC)c1OC` (stereo not drawn), -1.4%.
The result for `O=C(N[C@H]1CN(c2ccncc2)C[C@@H]1C1CC1)C1CCOCC1` reads -3.12%; that for `CSc1ncc(C(=O)NCc2cc3n(n2)CCCN(CC(C)C)C3)cn1`, 5.43%; that for `O=C1OCCN1CC(=O)N1C[C@H]2CC[C@@H]1CN(C(=O)c1ccccc1)C2`, 2.12%.
As for `CS(=O)(=O)c1ccc(CN2CCCCC2c2ccc(F)cc2)cc1` (stereo not drawn), the cytotoxicity at 70.5 h was 17.4%.
The result for `COc1ccc(C)cc1-n1cnnc1C1CC(=O)N(C)C1` (stereo not drawn) reads -4.76%.
For `CC(Cc1cncs1)Nc1ncnc2cccc(F)c12` (stereo not drawn), the cytotoxicity at 70.5 h is 1.5%.
As for `Cn1cnnc1CN1CCC2(CCC(=O)N(Cc3ccccc3)C2)CC1`, the cytotoxicity at 70.5 h was -4.83%.
The result for `Cc1cnc(NCc2csc(C(C)C)n2)nc1-c1cnn(C)c1` reads -14.9%; that for `O=C(O)C1(O)CCN(c2ccnc3c(C(F)(F)F)cccc23)CC1`, -25.6%.
The result for `OC1(CNCCc2csc(-c3ncccn3)n2)CCNC1` (stereo not drawn) reads -14.5%.
The result for `Nc1cc(O)nc(CCNC(=O)CC[C@@H]2CCCN3CCCC[C@H]23)n1` reads -4.87%.
In the case of `CCc1nc(N2CCCC(CCCOC)(C(=O)O)C2)ncc1C` (stereo not drawn), the cytotoxicity at 70.5 h was -10.1%.
Consider `CC(C)c1ccn(C2(C(=O)O)CCN(c3ccncc3F)CC2)n1`, for which the cytotoxicity at 70.5 h is -4.07%.
As to `CC(C)SCCNC(=O)c1cccc2ccnn12`, the cytotoxicity at 70.5 h is -9.35%.
Consider `Cc1[nH]ccc1C(=O)N[C@H]1CN(S(C)(=O)=O)C[C@@H]1C1CC1`, for which the cytotoxicity at 70.5 h was -5.26%.
Turning to `O=C1CCC2(CCN(Cc3ncccn3)CC2)CN1CCCO`, the cytotoxicity at 70.5 h was -8.14%.
The result for `CCNc1ncc(C(=O)NCCCc2ccncc2)cn1` reads -3.04%; that for `N#Cc1cccc(NC2CC(=O)N(C3Cc4ccccc4C3)C2)n1` (stereo not drawn), 19%.
The result for `Cc1cnccc1CN(C)C1CCN(c2ncnc3[nH]cnc23)CC1` reads -6.65%; that for `CC(=O)N1CCCC(C(=O)N2CCN(c3cnn(C)c(=O)c3)CC2)C1` (stereo not drawn), 9.66%.
Take `COCCN1CCC(CN(C)c2ncnc3c2c(C)nn3C)C1` (stereo not drawn): the cytotoxicity at 70.5 h came out at 6.13%.
For `O=C(Nc1nncs1)N1CCCN(C2CCCCC2)CC1`, the cytotoxicity at 70.5 h was -12.6%.
The result for `CN1CCN(c2cc(CCNC(=O)C3CCC3)nc(C3CC3)n2)CC1` reads -6.65%.
In the case of `Cn1nc(C2CN(C(=O)c3cscn3)C2)c2nccnc21`, the cytotoxicity at 70.5 h is -3.87%.
Take `COc1cccc(-c2nccnc2C2CCN(C(C)=O)CC2)c1`: the cytotoxicity at 70.5 h was -8.61%.
The result for `Cc1cncc(C2CCCN(C(=O)c3scnc3C)C2)n1` (stereo not drawn) reads -3.5%; that for `CN(C(=O)c1ccccn1)c1nc2c(s1)CCc1c-2cnn1C`, 8.04%; that for `Cc1cccc(CN2CCc3c(nc(N4CCCCC4C)[nH]c3=O)C2)n1` (stereo not drawn), -4.07%.
The result for `Cc1cccc(CN2CCc3c(nc(N4CCC(C)CC4)[nH]c3=O)C2)n1` reads -9.37%.
The result for `CC1CCCCN1c1nc2c(c(=O)[nH]1)CCN(Cc1cccnc1)C2` (stereo not drawn) reads -3.39%; that for `CCC(=O)N1CCc2nc3cc(OC)c(OC)cc3c(=O)n2CC1`, 29.2%.
Regarding `CCN1CCN(c2ncc(-c3cc(C)no3)c(-c3ccc(C)s3)n2)CC1`, the cytotoxicity at 70.5 h was -27.4%.
The result for `O=C(O)CCc1cccc(C2CCCN2Cc2ccc(F)c(F)c2)n1` (stereo not drawn) reads -6.64%; that for `Cc1ncccc1Oc1nccnc1C1CCN(C(C)C)CC1`, -2.72%; that for `Cn1nc(C2CCCN(C(=O)CO)C2)cc1O` (stereo not drawn), 19.8%.
The result for `CC(=O)N1CCNCC1c1cccc(C(=O)N(C)C)c1` (stereo not drawn) reads -8.36%; that for `O=C(c1n[nH]c(=O)c2ccccc12)N1CCCCC1c1ccn[nH]1` (stereo not drawn), -8.63%.
`CNC(=O)C1(c2cnccn2)CCCN1C(=O)c1ccn(C)n1` (stereo not drawn): the cytotoxicity at 70.5 h is -1.48%.
Regarding `CC(C)C(=O)N1CCN(Cc2cc(-c3ccncc3)nn2C)CC1`, the cytotoxicity at 70.5 h came out at 31.9%.
Take `CCC(=O)N1CCN(Cc2cc(-c3ccncc3)nn2C)CC1`: the cytotoxicity at 70.5 h amounted to 5.2%.
The result for `CN1CCCC[C@@H]2[C@H]1[C@@H](c1ccccc1)CCN2C(=O)c1cnccn1` reads 1.76%.
With `Cc1nc(O)c2nnn(C[C@H]3CCCN3C(=O)c3cccc(F)c3)c2n1`, the cytotoxicity at 70.5 h was -7.83%.
Consider `CN1CCCC(c2n[nH]c3ncccc23)C1` (stereo not drawn), for which the cytotoxicity at 70.5 h was -11.4%.
With `CCc1c(C)nc2cc(C3CCN(Cc4ccccc4F)C3)nn2c1O` (stereo not drawn), the cytotoxicity at 70.5 h is -2.56%.
In the case of `O=C(c1ccccn1)N1CCc2nc(-c3cnccn3)nc(O)c2C1`, the cytotoxicity at 70.5 h was -3.62%.
As to `O=C(Cc1ccccn1)N1CCc2nc(-c3cnccn3)nc(O)c2C1`, the cytotoxicity at 70.5 h was -4.01%.
Take `COc1ccc(-c2cc(C3CCCCCN3S(=O)(=O)N(C)C)on2)cc1` (stereo not drawn): the cytotoxicity at 70.5 h was 8.12%.
In the case of `Cc1cc(O)nc(C2CCCN(Cc3ccncc3)C2)n1` (stereo not drawn), the cytotoxicity at 70.5 h is -0.0773%.
The result for `c1cnc2c(C3CCN(Cc4ccsc4)CC3)n[nH]c2n1` reads 42.8%; that for `O=C1NCC2(CCCN(CCc3ccccc3)C2)Oc2ccccc21` (stereo not drawn), 21.7%; that for `Cc1csc2nc3n(c(=O)c12)CCN(C(=O)c1ccncc1)CC3`, -7.78%.
The result for `Cc1ccc(=O)n(CC2(O)CCN(Cc3ccsc3)CC2)n1` reads -10.6%.
The result for `CS(=O)(=O)N1CCC(O)(Cn2c(C3CC3)nc3ccccc3c2=O)CC1` reads -1.88%; that for `O=C(Cn1cccnc1=O)NC(Cc1cccs1)c1ccccn1` (stereo not drawn), -13.9%; that for `CCN1CCN(c2ncc(-c3cc(C)no3)c(-c3ccoc3C)n2)CC1`, -2.3%.
In the case of `Cc1nccc(CN2CCC(c3nnsc3S(C)(=O)=O)CC2)n1`, the cytotoxicity at 70.5 h is -21.3%.
With `Cc1cc(C)c2cc(CNCc3ccccc3)c3nn(C)c(=O)n3c2c1`, the cytotoxicity at 70.5 h came out at 3.71%.
The result for `CCCN(C(=O)c1ccccn1)c1nc2c(s1)CCc1c-2cnn1C` reads 3.64%.
The result for `c1cc(NC2CC3(CCN(Cc4cc[nH]n4)C3)C2)ncn1` (stereo not drawn) reads -16.2%; that for `CN(c1ccncn1)C1CC2(CCN(C(=O)CCc3cccs3)C2)C1` (stereo not drawn), -10.3%.
The result for `Cc1c(C2CCCN(C(=O)Cc3ccccn3)C2)n2c(nc1=O)CCC2` (stereo not drawn) reads 0.807%; that for `O=S(=O)(N1CCCCC1)N1CCc2nc(C3CCNCC3)ncc2C1`, -13.5%.
Take `OC[C@H]1CC[C@]2(CC1)CN(Cc1ccccc1F)Cc1ccccc1O2`: the cytotoxicity at 70.5 h is -3.44%.
The result for `Cc1ncc(CN2Cc3ccccc3O[C@]3(CC[C@H](CO)CC3)C2)cn1` reads -2.89%; that for `Cc1cc(-c2cnn(CCNC(=O)c3cccnc3)c2C2CC2)on1`, -16.3%.
As for `Cc1nc2cc(C3CCN(Cc4cccc(F)c4F)C3)nn2c(O)c1C` (stereo not drawn), the cytotoxicity at 70.5 h is -20.4%.
The result for `COc1cccc(CN2CCC(c3cc(O)nc(C)n3)C2)c1` (stereo not drawn) reads -3.89%; that for `CC1(C)CC(N(Cc2ccccc2)Cc2cccnc2)CC(C)(C)N1`, 30.7%.
As for `Cc1cc(C)nc(Nc2cccc(C3CCCN(C)C3)n2)n1` (stereo not drawn), the cytotoxicity at 70.5 h turned out to be 0.625%.
